Where two headings read alike, the source gives them in different places. One block for each molecule: values may come before it.
Key:
[1] = target: T1, human dopamine D4 receptor subtype (Homo sapiens, UniProt P21917); test: [3H]-Spiperone binding, displacement from human dopamine D4 receptor subtype expressed in clonal cell lines
T1 sequence (P21917 1-419): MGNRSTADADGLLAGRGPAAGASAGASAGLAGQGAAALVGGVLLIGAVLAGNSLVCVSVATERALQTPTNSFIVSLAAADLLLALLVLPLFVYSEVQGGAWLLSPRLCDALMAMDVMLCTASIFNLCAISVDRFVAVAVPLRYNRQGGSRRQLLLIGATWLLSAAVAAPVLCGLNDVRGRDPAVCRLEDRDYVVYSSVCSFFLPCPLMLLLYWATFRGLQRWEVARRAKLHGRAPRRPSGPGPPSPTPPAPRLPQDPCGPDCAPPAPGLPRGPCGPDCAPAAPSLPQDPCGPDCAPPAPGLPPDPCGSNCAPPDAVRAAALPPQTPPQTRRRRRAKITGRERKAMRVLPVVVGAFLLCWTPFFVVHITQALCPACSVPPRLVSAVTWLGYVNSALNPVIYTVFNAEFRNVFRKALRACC

[2] = target: T2, human dopamine D2 receptor subtype (Homo sapiens, UniProt P14416); test: [3H]-Spiperone binding, displacement from human dopamine D2 receptor subtype expressed in clonal cell lines
T2 construct: expressed in transfected cells

rats = test: Sedation: spontaneous motor activity of rats in novel cages with photocells (number of cage crossings); format: in vivo; conditions: rat
From the text: Representative compounds according to the invention have been tested for their effects on spontaneous motor activity occasioned by placing rats in novel cages equipped with photocells in order to determine the number of cage crossings. This is an art-recognised model of the sedation potential of a given test compound.

rat = test: Extrapyramidal disorders: apomorphine-induced stereotypy in the rat; format: in vivo
From the text: 2. Extrapyramidal Disorders
Representative compounds according to the invention have been tested for their effect on apomorphine-induced stereotypy in the rat. This is an art-recognised model of the potential to induce extrapyramidal side-effects.

T2 sequence (P14416 whole entry): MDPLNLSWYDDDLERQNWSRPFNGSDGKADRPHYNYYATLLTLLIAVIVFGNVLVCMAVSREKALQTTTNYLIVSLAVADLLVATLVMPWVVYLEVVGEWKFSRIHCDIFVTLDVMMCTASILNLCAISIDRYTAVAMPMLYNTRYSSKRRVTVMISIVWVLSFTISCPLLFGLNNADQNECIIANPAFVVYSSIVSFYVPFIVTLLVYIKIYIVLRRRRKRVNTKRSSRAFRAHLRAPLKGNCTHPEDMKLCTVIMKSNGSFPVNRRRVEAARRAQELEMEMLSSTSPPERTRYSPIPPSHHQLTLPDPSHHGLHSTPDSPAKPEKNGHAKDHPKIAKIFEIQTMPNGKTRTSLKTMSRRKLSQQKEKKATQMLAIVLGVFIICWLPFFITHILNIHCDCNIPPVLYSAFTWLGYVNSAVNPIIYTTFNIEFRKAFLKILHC

Ki ([1]; human D4, clonal cell line membranes, 0.2 nM [3H]-spiperone): 0.0013 µM
D4 :D2 ratio ([1]; ratio of Ki values, selectivity for D4 over D2, 60 min): greater than 1150
Ki ([2]; human D2, clonal cell line membranes, 0.2 nM [3H]-spiperone, read-out: Ki value for the D2 subtype): > 1.5 µM
Compound: COc1ccc(N2CCN(Cc3c[nH]c4ncccc34)CC2)cc1 [Example 2, 3-(4-[4-Methoxyphenyl]piperazin-1-yl)methyl-1H-pyrrolo[2,3-b]pyridine]

Compound: Clc1ccc(N2CCN(Cc3c[nH]c4ncccc34)CC2)cc1 [Example 5, 3-(4-[4-Chlorophenyl]piperazin-1-yl)methyl-1H-pyrrolo[2,3-b]pyridine]
Ki [2]: 0.86 µM
sedation (spontaneous motor activity) (rats; doses of up to 10-30 mg/kg): no evidence for sedation
potential to induce extrapyramidal side-effects (apomorphine-induced stereotypy) (rat; doses up to 1.0 mg/kg): no potential to induce the extrapyramidal side-effects

Compound: O=C(CCCN1CCC(O)(c2ccc(Cl)cc2)CC1)c1ccc(F)cc1 [haloperidol, reference compound]
sedation (spontaneous motor activity) (rats; dose of 1 mg/kg): marked sedation
potential to elicit extrapyramidal side-effects (apomorphine-induced stereotypy) (rat; doses of 0.5 and 1.0 mg/kg): significant potential to elicit extrapyramidal side-effects

Source: patent US5576319A, “Pyrrolo-pyridine derivatives” (Merck, Sharp & Dohme Ltd., priority 1994, dated 1996)
